Our source for the inhibition values is US5922871A, “Terephthalamide derivatives” (Dongwha Pharmaceutical Ind. Co., Ltd., priority 1997, dated 1999).

Test [1] deals with T1, HIV reverse transcriptase (HIV-RT) (Human immunodeficiency virus type 1 group M subtype B, UniProt P04585).
T1 construct: purchased Boehringer Mannheim
Put plainly: in vitro inhibition test against HIV reverse transcriptase. Format: biochemical, HIV (AIDS virus). Particulars: read-out: Inhibitory effect of HIV-RT; for inhibition at 0.1 µg/mL: 0.1 μg/ml; for inhibition at 1 µg/mL: 1 μg/ml. The method, then:
Experiment 3: The in vitro inhibition test against HIV reverse transcriptase
The inhibitory activity in vitro was measured using a non-radioactive reverse transcriptase assay Kit (Boehringer Mannheim).
At first, 20 μl(40 ng) HIV-RT was added to the wells coated with streptavidin and with the addition of 20 μl, reaction mixture containing template/primer hybrid poly(A)/oligo(dT)15 and DIG-(digoxigenin)-dUTP, biotin-dUTP and TTP, 20 μl test compound was added and reacted at 37° C. for 1 hour. The control without test compound was used for the comparison of related activity. Since DNA containing nucleotide labeled with digoxigenin and biotine was prepared by the action of HIV-RT, it was combined with streptavidin coated at the bottom of the wells. After the reaction was completed, remaining impurities were removed by washing each well with 20 μl buffer solution (pH 7.0) for 30 seconds 5 times and with the addition of 200 μl anti-DIG-POD antibody, the mixture was reacted at 37° C. for 1 hour. For the removal of remaining impurities again, the reacting solution was washed with a buffer solution and with the addition of 200μl ABTS™ each, a substrate of POD(peroxidase), the solution was reacted at room temperature for 30 minutes. The absorbance was read by ELISA reader at 405 nm for the assay of reverse transcriptase activity and its inhibition activity.

The target of test [2] is T2, HBV polymerase reverse transcriptase (HBV-RT) (Hepatitis B virus genotype D subtype ayw, UniProt P03156).
T2 construct: made in house; host or cells: E. coli
Briefly: inhibitory activity against HBV polymerase in vitro (reverse transcriptase activity). It counts as biochemical. Particulars: read-out: Inhibitory effect of HBV-RT; for inhibition at 0.1 µg/mL: 0.1 μg/ml; for inhibition at 1 µg/mL: 1 μg/ml. From the text:
Experiment 1: The inhibitory activity against HBV polymerase in vitro.
Recently, the inventors of the present invention have produced a recombinant HBV polymerase that is expressed from E.coli transformant, measured its enzyme activity and filed patent applications thereof [Korean Patent Application Nos. 94-3918, 96-33998 and 96-63255].
The inventions have established a method of measuring the reverse transcriptase activity of HBV polymerase in vitro. The fundamental principle is the same as the ELISA method, and after reacting the substrate with biotin- and DIG-modified nucleotide, a method of recognizing the polymerized substrate as anti-DIG antibody with peroxidase was used. […] and 20 μ of test compound were mixed and reacted at 14~30° C. for 18~24 hours. Then, the inhibitory effect of test compound against reverse trascriptase activity in the HBV polymerase was examined, compared with the results of control tests without the test compound.

Test [3] concerns the target T3, RNase H of HBV polymerase (HBV-RNase H) (Hepatitis B virus ayw/France/Tiollais/1979, UniProt P03156).
T3 construct: amylose/maltose step implies MBP fusion
Put plainly: inhibitory effects against RNase H activity of HBV polymerase. Format: biochemical. Particulars: read-out: Inhibitory effect of HBV-RNase H; for inhibition at 0.1 µg/mL: 0.1 μg/ml; for inhibition at 1 µg/mL: 1 μg/ml. On the procedure: Experiment 2: The inhibitory effects against RNase H activity of HBV polymerase.
1) Expression of the RNase H domain derived from human HBV polymerase
E.coli NM 522 was transformed by the expression vector pMRH respectively and the transformants were cultured in LB medium at 37° C., overnight. These growing cultures were diluted 1:100, inoculated into a glucose rich medium and incubated until OD600 reached 0.5. Then IPTG (isopropylthiogalactoside) was added into the medium of which the fine concentration was 0.5 mM. The above growing cultures were incubated again at 20° C. for 16 hours and the RNase H domain was expressed.
The above cultured broth was centrifuged for 10 minutes at 3,000 rpm and the cell pellet was washed with 10 ml of TNE column buffer (10 mN Tris-Cl, pH 8.0, 200 mM NaCl, 1 mM EDTA), and resuspended in 10 ml of TNE column buffer. The cells were freezed and thawed 4 times repeatedly, and then disrupted by sonication for 10 seconds 3 times. The crude extract prepared in the above process was centrifuged for 30 minutes at 13,000 rpm, 4° C. and the supernatant was separated. The above process was repeated 2 times and then the supernatant passed the amylose resin. The resin was washed by using column buffer with 50 times of resin volume, and the RNase H domain was eluted by using buffer containing 10 mM maltose.
In addition, the RNase H domain produced from the expression vector pMRH was purified by using histidine tag affinity column, because RNase H has a histidine tag at the C-terminus. The resin (Ni-NTA, QIAGEN) used in the histidine tag affinity column was activated by using sonication buffer (50 mM sodium phosphate, pH 8.0, 300 mM sodium chloride) and 4~5 ml of the activated resin was charged in the glass tube whose diameter was about 1 cm. The protein sample obtained from above description passed the resin at the 0.1 ml/ min flow rate and the column was washed by using washing buffer with the 100~200 times volume of protein sample (50 mM sodium phosphate, pH 6.0, 300 mM sodium chloride, 10% glycerol). The recombinant protein was eluted by washing the column with concentration gradient of 0.01~0.5 M imidazole.
As a result, the active RNase H domain was separated from the histidine tag affinity column at 30 mM concentration of imidazole. The purified RNase H domain was mixed with 50% glycerol for storage at -20° C. after the removal of imidazole from it and employed fol the screening of HBV inhibitors.
2) Preparation of the substrate of the RNase H enzyme
In order to identify the RNase H activity, RNA/DNA complex which can be used as a substrate of the RNase H enzyme was prepared by performing in vitro transcription with […].
3) Screening of active inhibitors against RNase H
The RNase H activity was measured by using recombinant RNase H enzyme and radiolabled RNA/DNA hybrid. In order to measure the RNase H activity, 1 μg of RNase H enzyme and test compound were mixed with buffer solution containing 40 mM Tris-Cl (pH 8.0), 4 mM magnesium chloride, 40 mM potassium chloride and 2 mM DTT. The mixture was pretreated on ice for 10 minutes. After pretreatment is completed, RNA/DNA hybrid was added to incubate at 37° C. for 3 hours. After the reaction was stopped, 7.5 M ammonium acetate in a volume of 1/2 and ethanol in a 3-fold volume were added. The above reaction mixture was incubated at -20° C. for more than 2 hours and centrifuged for 15 minutes at 4° C., 13,000 rpm. The supernatant was obtained and the radioactive signal of supernatant was measured by scintillation counter.
As a control, water was added instead of test compound and the inhibitory activity was calculated to compare with the control, when the radioactivity intensity on each test compound, was obtained.

T3 sequence (P03156 680-832): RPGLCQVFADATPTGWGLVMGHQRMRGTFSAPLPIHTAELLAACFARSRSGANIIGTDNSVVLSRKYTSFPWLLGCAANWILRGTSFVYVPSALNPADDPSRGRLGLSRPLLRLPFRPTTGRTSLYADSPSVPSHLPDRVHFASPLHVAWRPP
T2 sequence (P03156 whole entry): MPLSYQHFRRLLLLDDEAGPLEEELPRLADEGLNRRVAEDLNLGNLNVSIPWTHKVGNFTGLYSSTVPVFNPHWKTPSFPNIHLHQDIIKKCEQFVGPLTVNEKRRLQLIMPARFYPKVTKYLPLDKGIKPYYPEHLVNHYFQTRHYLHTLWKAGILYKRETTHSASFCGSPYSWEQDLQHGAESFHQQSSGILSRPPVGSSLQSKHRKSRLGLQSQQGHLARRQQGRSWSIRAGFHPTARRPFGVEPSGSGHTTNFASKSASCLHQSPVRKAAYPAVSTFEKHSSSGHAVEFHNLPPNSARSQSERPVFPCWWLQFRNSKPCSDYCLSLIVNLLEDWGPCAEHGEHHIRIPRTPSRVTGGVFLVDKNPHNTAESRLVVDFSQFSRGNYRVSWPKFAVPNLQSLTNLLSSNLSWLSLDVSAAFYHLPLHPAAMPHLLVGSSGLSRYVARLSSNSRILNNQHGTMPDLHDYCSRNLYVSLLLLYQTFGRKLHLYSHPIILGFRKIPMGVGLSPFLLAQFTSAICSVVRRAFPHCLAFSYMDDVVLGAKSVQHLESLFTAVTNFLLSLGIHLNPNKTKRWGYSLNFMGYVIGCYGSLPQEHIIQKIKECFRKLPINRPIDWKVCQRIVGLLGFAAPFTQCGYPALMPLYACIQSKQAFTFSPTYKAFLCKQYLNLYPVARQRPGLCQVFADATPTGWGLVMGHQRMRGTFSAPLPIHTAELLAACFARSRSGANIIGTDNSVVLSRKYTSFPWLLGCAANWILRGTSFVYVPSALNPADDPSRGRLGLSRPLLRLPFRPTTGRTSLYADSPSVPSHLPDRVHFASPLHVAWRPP

Consider `CC(C)Nc1cccnc1N1CCN(C(=O)c2ccc(C(=O)NCCO)cc2)CC1` [Compound No. 1, 1-[N-(2-Hydroxyethyl)carbamoyl]-4-[1-[3-(isopropylamino)-2-pyridyl]piperazin-4-yl-carbonyl]benzene], for which the values for the inhibition at 0.1 µg/mL in test [1], in test [2] and in test [3] were 41%, 53% and 11%, respectively. The values for the inhibition at 1 µg/mL in test [1], in test [2] and in test [3] were 62%, 55% and 80%, respectively.
For `CC(C)Nc1cccnc1N1CCN(C(=O)c2ccc(C(=O)N(CCO)CCO)cc2)CC1` [Compound No. 12, 1-[N,N-Bis(2-hydroxyethyl)carbamoyl]-4-[1-[3-(isopropylamino)-2-pyridyl]piperazin-4-yl-carbonyl]benzene], the results for the inhibition at 0.1 µg/mL in test [1], in test [2] and in test [3] were 46%, 52% and 86%, respectively. Moreover, the values for the inhibition at 1 µg/mL in test [1], in test [2] and in test [3] were 52%, 63% and 91%, respectively.
Regarding `CC(C)Nc1cccnc1N1CCN(C(=O)c2ccc(C(=O)N3CCN(CCO)CC3)cc2)CC1` [Compound No. 26, 4-(2-Hydroxyethyl)-1-[4-[1-[3-(isopropylamino)-2-pyridyl]piperazin-4-yl-carbonyl]benzoyl]piperazine], the inhibition at 0.1 µg/mL in test [1] stood at 45%; in test [2], 32%; in test [3], 66%. In addition, the inhibition at 1 µg/mL was found to be 55% in test [1], 54% in test [2] and 95% in test [3].
Consider `CC(C)Nc1cccnc1N1CCN(C(=O)c2ccc(C(=O)NC(CO)CO)cc2)CC1` [Compound No. 52, 1-[N-[Bis(hydroxymethyl)methyl]carbamoyl]-4-[1-[3-(isopropylamino)-2-pyridyl]piperazin-4-yl-carbonyl]benzene], for which the inhibition at 0.1 µg/mL in test [1] worked out at 57%; in test [2], 52%; in test [3], 41%. In addition, the inhibition at 1 µg/mL amounted to 61% in test [1], 63% in test [2] and 58% in test [3].
In the case of `CC(C)Nc1cccnc1N1CCN(C(=O)c2ccc(C(=O)N(C)CC3OCCO3)cc2)CC1` [Compound No. 71, 1-[N-[(1,3-Dioxolan-2-yl)methyl]-N-methylcarbamoyl]-4-[1-[3-(isopropylamino)-2-pyridyl]piperazin-4-yl-carbonyl]benzene], the results for the inhibition at 0.1 µg/mL in test [1], in test [2] and in test [3] were 68%, 35% and 56%, respectively. Besides, the figures for the inhibition at 1 µg/mL in test [1], in test [2] and in test [3] were 70%, 51% and 62%, respectively.
